“Also recorded” adds a separate entry of the source.
Experiments:
ERK [1] = experiment: ERK activity (Western blot, phosphorylated ERK-specific antibody) in micromass-cultured mesenchymal cells; type: cell-based, chicken; settings: mesenchymal cells treated with PD98059, micromass culture
Experimental: (§1) The present inventors have observed the differentiation process of chondrocytes using limb bud mesenchymal cells of Hamburger-Hamilton stage 24-25 chicken embryo under micromass culture (FIG. 1A). Particularly, mesenchymal cells were suspended in Ham's F-12 medium (Gibco BRL, Gaithersburg, Md., USA) supplemented with 10% fetal bovine serum (2×10^7 cells/ ml). The cell suspension was loaded onto culture dish (15 μl/spot) and cultured at 37° C. for two hours in order to fix the cells on the dish. The cells were further cultured in the Ham's F-12 medium containing 10% FBS, 50 μg/ml streptomycin, and 50 units/ml penicillin.
The present inventors have confirmed the effect of ERK activity inhibition on the differentiation of chondrocytes. Particularly, the present inventors have investigated how the differentiation was influenced by the change and the inhibition of ERK activity during the differentiation process of chondrocytes induced by micromass culture of mesenchimal cells (FIG. 2A and Example 1-1). […] Therefore, it was confirmed that the decrease of ERK activity was required for the differentiation from mesenchimal cells to chondrocytes; that is, the differentiation of chondrocytes was stimulated by the inhibition of ERK activity.
(§2) For the activation of ERK, phosphorylation by MEK, the upstream signal transduction molecule of ERK, is required.

[2] = test system: limb bud mesenchymal cells of chicken embryo; experiment: Differentiation of mesenchymal cells to chondrocytes (alcian blue staining, type-II collagen Western blot); type: cell-based
Experimental: as §1
As a result, when mesenchymal cells were micromass cultured for five days, the synthesis of type-II collagen, a characteristic of chondrocytes, began to take place from the third day of culturing, which was confirmed by Western blotting using an antibody implying that the differentiation of chondrocytes was progressed. The accumulation of sulfated proteoglycan was also confirmed through alcian blue staining to be increased, which also implied that the differentiation of chondrocytes began from the third day of culturing and completed on the fifth day (FIG. 2A).
The present inventors have confirmed the effect of ERK activity inhibition on the differentiation of chondrocytes. […]

ERK [3] = experiment: ERK activity in serially monolayer-cultured articular chondrocytes; type: cell-based, rabbit; settings: 20 μM, chondrocytes of each passage, two additional days
Text: In order to confirm the de-differentiation and degeneration of chondrocytes, the present inventors have performed consecutively monolayer culture with articular chondrocytes of a two- to four-week-old rabbit (FIG. 1B). Particularly, articular cartilage of the rabbit was thin-sectioned aseptically, and the articular fragments were then reacted in PBS containing 0.2% collagenase type-II (Sigma) for six hours. Through quick-centrifugation, single cells were obtained. The single cells were suspended in DMEM (Dulbecco 's modified Eagle's medium, Gibco BRL, Gaithersburg, Md., USA) containing 10% FBS, 50 μg/ml streptomycin, and 50 units/ml penicillin and were plated onto a culture-dish at a density of 5×10^4 cells/cm^2 and cultured at 37° C. The medium was changed every other day. Five days later, the culture dish was filled with grown-up cells, which were identified as P0. Those cells were subcultured at the concentration of 5×10^4 cells/cm^2 per culture dish. […]
In order to ascertain the effect of ERK activity on the de-differentiation of chondrocytes, rabbit articular cartilage cells were cultured at the density of 5×10^4 cells/cm^2 on a culture dish. […] The expression of type-II collagen was analyzed by Western and Northern blotting, resulting in the highest expression in, P0, beginning to decrease in P1 and almost no expression after P3 (FIG. 4A). […]

[4] = test system: rabbit articular chondrocytes; experiment: De-differentiation of articular chondrocytes in serial monolayer culture (type-II collagen, proteoglycan synthesis); type: cell-based; settings: two days; for expression of type-II collagen: 20 μM
Text: In order to confirm the de-differentiation and degeneration of chondrocytes, the present inventors have performed consecutively monolayer culture with articular chondrocytes of a two- to four-week-old rabbit (FIG. 1B). Particularly, articular cartilage of the rabbit was thin-sectioned aseptically, and the articular fragments were then reacted in PBS containing 0.2% collagenase type-II (Sigma) for six hours. Through quick-centrifugation, single cells were obtained. The single cells were suspended in DMEM (Dulbecco 's modified Eagle's medium, Gibco BRL, Gaithersburg, Md., USA) containing 10% FBS, 50 μg/ml streptomycin, and 50 units/ml penicillin and were plated onto a culture-dish at a density of 5×10^4 cells/cm^2 and cultured at 37° C. The medium was changed every other day. Five days later, the culture dish was filled with grown-up cells, which were identified as P0. Those cells were subcultured at the concentration of 5×10^4 cells/cm^2 per culture dish. The cells were continuously subcultured whenever they were fully grown to fill the dishes and were identified as P1 and next P2. Subculture was finished when P6 phase was completed. […] It was also confirmed by alcian blue staining that the accumulation of glycosaminoglycan sulfide was decreased as the subculture was continued. The de-differentiation and degeneration of chondrocytes were also disclosed by observing the shape of chondrocytes, which was changed from their distinguished round shape to fibroblast shape, a characteristic of degenerated chondrocytes (FIG. 2B).
In order to ascertain the effect of ERK activity on the de-differentiation of chondrocytes, rabbit articular cartilage cells were cultured at the density of 5×10^4 cells/cm^2 on a culture dish. The cells began to proliferate on the second day of culture and reached saturation on the fifth day. The cells in saturation point were designated as P0. The cells in P0 stage had typical round or polygonal shapes, but these forms changed into flat and fibroblast-like shapes while the cells were going through P6 stage by serial monolayer culture (FIG. 2B). The expression of type-II collagen was analyzed by Western and Northern blotting, resulting in the highest expression in, P0, beginning to decrease in P1 and almost no expression after P3 (FIG. 4A). […] Therefore, it was confirmed that the ERK activity was in inverse proportion to the expression of type-II collagen, which means the ERK activity plays an important role in the de-differentiation process.
To determine the relations between ERK activity and de-differentiation, the cells under subculturing were treated with 2-(2-amino-3-methoxyphenol)-4H-1-benzopyran-4-one (PD98059), an ERK activity inhibitor, and the synthesis of collagen and proteoglycan was observed. […]

P0 and P2 chondrocytes = experiment: Immunostaining of type-II collagen in P0 and P2 chondrocytes; type: cell-based, rabbit; settings: 20 μM, two days, immunofluorescence
Experimental: In order to examine the suppression of de-differentiation by the inhibition of ERK activity, the expression of collagen was observed by immunostaining. Particularly, 20 μM of ERK activity inhibitor 2-(2-amino-3-methoxyphenol)-4H-1-benzopyran-4-one (PD98059) was added into P0 and P2 chondrocytes, and the cells were then cultured for two days. The cultured cells were fixed with 3% parpformaldehyde for ten minutes and some parts of the cell membranes were disrupted by 0.2% X-100. Next, anti-type II collagen antibody (10 μg/ml) was added thereto and continued to culture thereof for one hour.

chondrocytes [5] = experiment: NO (SNP) induced de-differentiation of chondrocytes (type-II collagen, proteoglycan); type: cell-based
Text: (§3) In order to investigate the effect of ERK activity on the de-differentiation of chondrocytes induced by NO production, the change of ERK activity in SNP treated chondrocytes was detected. […] In order to increase the ERK activity by SNP, at least 0. […] The ERK activity inhibitor also restrained the inhibition of type-II collagen expression by SNP (FIG. 8C), and it blocked the decrease of proteoglycan synthesis induced by SNP (FIG. 8D).

ERK [6] = experiment: ERK activity in SNP treated chondrocytes; type: cell-based
Text: as §3, §2

MMP-9 = MMP-9 activity/expression by gelatin zymography in IL-1β treated articular cartilage cells; type: cell-based
Experimental: Particularly, articular cartilage cells were treated with 10 ng/ml of IL-1β according to the different times (0 minutes, ten minutes, thirty minutes, one hour, two hours, four hours, six hours, twelve hours, and 24 hours) and concentrations (0 ng/ml, 0.01 ng/ml , 0.1 ng/ml, 1 ng/ml, and 10 ng/ml), and culture supernatant was then obtained, followed by electrophoresis on the gel containing 2% gelatin. The separated gel was cultured at 37° C. for twelve hours, by which the decomposition of gelatin was induced by MMP-9. The remaining gelatin was stained for the confirmation of gelatin decomposition by MMP, based on which the MMP-9 activity was measured.

chondrocytes [7] = experiment: IL-1β induced NO production in chondrocytes (nitrite); type: cell-based
Experimental: Particularly, the amount of NO was determined by measuring the concentration of nitrite, a reaction product of NO, secreted after treating chondrocytes with IL1-β for 24 hours.

COX-2 = COX-2 expression in IL-1β treated chondrocytes (Western blotting); type: cell-based
Experimental: The present inventors have further investigated the relation between the inhibition of ERK activity and the expression of COX-2. Particularly, the inventors have confirmed with Western blotting the quantity of cox-2 protein expressed in chondrocytes after treating the cells with different concentrations of IL-1β for 24 hours.

SPF SD line rats = experiment: Acute toxicity test in rat via non-oral administration; type: in vivo
Experimental: Six-week old SPF SD line rats were used in the tests for acute toxicity. 2-(2-amino-3-methoxyphenol)-4H-1-benzopyran-4-one (PD98059) of the present invention was suspended in 0.5% methyl cellulose solution and intravenous injected once into two rats per group at dosages of 50, 30, and 10 mg/kg/15 ml. Death, clinical symptoms, and weight change in the rats were observed, hematological tests and biochemical tests of blood were performed, and abnormal signs in the gastrointestinal organs of chest and abdomen were observed visually during autopsy.

ERK [8] = experiment: ERK activity in IL-1β treated chondrocytes; type: cell-based; settings: chondrocytes treated with IL-1β
chondrocytes [9] = experiment: NO production in chondrocytes treated with SNP; type: cell-based
Text: In order to investigate the effect of NO produced in chondrocytes on the de-differentiation of chondrocytes, the present inventors treated the cells with […] (SNP), a NO donor, to induce No production.

[10] = single intravenous injection, 50, 30 and 10 mg/kg/15 ml

In the case of `COc1cccc(-c2cc(=O)c3ccccc3o2)c1N` [PD98059, 2-(2-amino-3-methoxyphenol)-4H-1-benzopyran-4-one], the “activity of ERK” value (ERK [1]) was “decreased in a dose-dependent manner”, the “synthesis of proteoglycan (alcian blue staining)” value ([2]; mesenchymal cells treated with PD98059) was “remarkably increased; also recorded: largely increased” and the “expression of type-II collagen” value ([2]; mesenchymal cells treated with PD98059, Western blot) was “also increased”. For the same molecule, the ERK activity (ERK [3]) was “suppressed”, the “increase of synthesis of proteoglycan by a factor (alcian blue staining)” value ([4]; P0, 20 μM) was 2.6 and the “expression of type-II collagen” value ([4]; P0 cells) was “largely increased”. The “increase of synthesis of proteoglycan by a factor (alcian blue staining)” value ([4]; P2, 20 μM) was 6.4, the “expression of type-II collagen” value ([4]; P2 cells) was “turned to express again” and the “numbers of type-II collagen expressed cells” value (P0 and P2 chondrocytes; P0 cells) was “remarkably increased”. For the same molecule, the “numbers of type-II collagen expressed cells” value (P0 and P2 chondrocytes; P2 cells) was “greatly increased”, the “decrease of proteoglycan synthesis induced by SNP” value (chondrocytes [5]; PD98059 with SNP) was “blocked” and the “inhibition of type-II collagen expression by SNP” value (chondrocytes [5]; PD98059 with SNP) was “restrained”. For the same molecule, the ERK activity (ERK [6]; 20 μM PD98059, SNP treated chondrocytes) was “totally restrained”, the “expression of MMP-9” value (MMP-9; 10 μM PD98059, IL-1β treated chondrocytes) was “suppressed” and the “NO production caused by IL-1β” value (chondrocytes [7]; 5 μM PD98059, IL-1β for 24 hours, nitrite) was “completely inhibited”. The “expression of cox-2” value (COX-2; 5 μM PD98059, IL-1β for 24 hours) was “completely suppressed”, the “level not causing any toxic change” value (SPF SD line rats; single intravenous injection) was ≤ 50 mg/kg and the “clinical symptoms, weight change, death” value (SPF SD line rats; [10]) was “did not cause any specific clinical symptoms, weight change, or death”. The “hematological tests, biochemical tests of blood, autopsy” value (SPF SD line rats; [10]) was “No change was observed”.
In the case of IL-1β: an inflammatory cytokine, the “expression of MMP-9” value (MMP-9; IL-1β 0-10 ng/ml, gelatin zymography) was “largely increased depending on the concentration”, the ERK activity (ERK [8]) was “temporarily increased at the early stage” and the NO production (chondrocytes [7]; chondrocytes treated with IL-1β) was “stimulates NO production in a dose-dependent manner”. For the same molecule, the “expression of cox-2” value (COX-2; different concentrations of IL-1β, 24 hours) was “increased depending on the concentration”.
For `CC(=O)N[C@H](C(=O)O)C(C)(C)SN=O` [SNP, S-nitroso-N-acetyl penicillamine], the NO production (chondrocytes [9]) was “in proportion to the concentration”, the “expression of type-II collagen” value (chondrocytes [5]; 0.1 mM SNP, 24 hours) was “started to decrease” and the “expression of type-II collagen” value (chondrocytes [5]; 1 mM SNP, 12 hours) was “began to decrease”. The “expression of type-II collagen” value (chondrocytes [5]; 1 mM SNP, 24 hours) was “totally suppressed”, the synthesis of proteoglycan (chondrocytes [5]; SNP treated chondrocytes) was “decreased depending on the concentration” and the “ERK activity, time course” value (ERK [6]; 1 mM SNP) was “began to increase three hours after the treatment and reached the highest activity twelve hours later”. The “SNP concentration required to increase the ERK activity” value (ERK [6]; chondrocytes) was “at least 0. 5 mM”.
